Experiments:
[1] = tested on: B. subtilis 168; test: fitness (endpoint OD595 vs no drug) (fraction); higher = more growth; conditions: main component drawn
Summary of the method: (§1)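 In 384-well plates at 37 °C, cultures began at OD595 0.01 in 30 µl, with 55 µl used for S. pneumoniae. OD595 readings every 30 min for 14 h were corrected by the first reading. Fitness divides the stationary-phase transition optical density by the robust mean of no-drug control wells. The result is capped at 1.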

[2] = tested on: S. pneumoniae D39V; test: as above; conditions: main component drawn
Summary of the method: as §1
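Also: OD595 on entry to stationary phase over no-drug wells; at most 1.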

O=C(O)[C@H]1/C(=C/CO)O[C@@H]2CC(=O)N21 [Clavulanic acid] + CCC(C)C1C(=O)NC(=C)C(=O)NC(C(=O)NC(CSCC(C(=O)N1)NC(=O)/C(=C/C)/NC(=O)C(C(C)CC)N)C(=O)NC2C(SCC(NC(=O)CNC(=O)C3CCCN3C2=O)C(=O)NC(CCCCN)C(=O)NC4C(SCC(NC(=O)CNC(=O)C(NC(=O)C(NC(=O)C(NC(=O)CNC4=O)C)CC(C)C)CCSC)C(=O)NC(CC(=O)N)C(=O)NC(CCSC)C(=O)NC(CCCCN)C(=O)NC5C(SCC6C(=O)NC(C(=O)NC(CSC(C(C(=O)N6)NC(=O)C(NC5=O)C)C)C(=O)NC(CO)C(=O)NC(C(C)CC)C(=O)NC(CC7=CN=CN7)C(=O)NC(C(C)C)C(=O)NC(=C)C(=O)NC(CCCCN)C(=O)O)CC8=CN=CN8)C)C)C)CC(C)C [Nisin]
Conditions | fitness
[1], first compound 1.5 µg/mL, partner 0.5 µg/mL | 0.814
[1], first compound 1.5 µg/mL, partner 1 µg/mL | 0.775
[1], first compound 1.5 µg/mL, partner 2 µg/mL | 0.541
[1], first compound 3 µg/mL, partner 0.5 µg/mL | 0.797
[1], first compound 3 µg/mL, partner 1 µg/mL | 0.769
[1], first compound 3 µg/mL, partner 2 µg/mL | 0.595
[1], first compound 6 µg/mL, partner 0.5 µg/mL | 0.738
[1], first compound 6 µg/mL, partner 1 µg/mL | 0.703
[1], first compound 6 µg/mL, partner 2 µg/mL | 0.485
[2], first compound 0.5 µg/mL, partner 0.4275 µg/mL | 0.973
[2], first compound 0.5 µg/mL, partner 1.6 µg/mL | 0.0053
[2], first compound 0.5 µg/mL, partner 1.71 µg/mL | 0.0946
[2], first compound 0.5 µg/mL, partner 3.2 µg/mL | 0.0291
[2], first compound 0.5 µg/mL, partner 6.4 µg/mL | 0.0063
[2], first compound 1 µg/mL, partner 0.4275 µg/mL | 0.982
[2], first compound 1 µg/mL, partner 1.6 µg/mL | 0.16
[2], first compound 1 µg/mL, partner 1.71 µg/mL | 0.0481
[2], first compound 1 µg/mL, partner 3.2 µg/mL | 0.154
[2], first compound 1 µg/mL, partner 6.4 µg/mL | 0.16
[2], first compound 2 µg/mL, partner 0.4275 µg/mL | 0.929
[2], first compound 2 µg/mL, partner 0.855 µg/mL | 0.617
[2], first compound 2 µg/mL, partner 1.6 µg/mL | 0.0042
[2], first compound 2 µg/mL, partner 1.71 µg/mL | 0.0736
[2], first compound 2 µg/mL, partner 3.2 µg/mL | 0.0076
[2], first compound 2 µg/mL, partner 6.4 µg/mL | 0.0001

fitness, [1], one replicate
Conditions | partner 1.25 µg/mL | partner 1.6 µg/mL | partner 2.5 µg/mL | partner 3.2 µg/mL | partner 4 µg/mL | partner 5 µg/mL | partner 6.4 µg/mL | partner 8 µg/mL | partner 16 µg/mL
first compound 1.5 µg/mL | 0.802 | 0.697 | 0.537 | 0.0178 | 0.0192 | 0.0574 | 0.0673 | 0.0099 | 0.0067
first compound 3 µg/mL | 0.765 | 0.733 | 0.48 | 0.0108 | 0.178 | 0.0615 | 0.0551 | 0.0036 | 0.0134
first compound 6 µg/mL | 0.57 | 0.67 | 0.182 | 0.0221 | 0.117 | 0.0792 | 0.0542 | 0.0002 | 0

Source: the supplement of paper PMC10627819
